Data taken from ChEMBL document CHEMBL1201862, “PubChem BioAssay data set” (2004).
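Where inhibition never reached the appropriate level, the endpoint shown equals the highest concentration tested. Otherwise, values were interpolated linearly from a five-concentration, 48-hour dose response in 96-well plates. The concentration for 50% growth inhibition is given as GI50.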 Calls of active or inactive are those of the source. No stated cut-off is given here; in the data, active = GI50 up to about 1.1 µM and inactive = higher.

Assays:
Experiment in all cases: inhibition of tumour cell growth, NCI panel, 48 h
[1] = test system: 786-0
[2] = test system: A498
[3] = test system: A549
[4] = test system: ACHN
[5] = test system: BT-549
[6] = test system: CAKI-1
[7] = test system: CCRF-CEM
[8] = test system: COLO 205
[9] = test system: DU-145
[10] = test system: EKVX
[11] = test system: HCC 2998
[12] = test system: HCT-116
[13] = test system: HCT-15
[14] = test system: HL-60
[15] = test system: HOP-62
[16] = test system: HT-29
[17] = test system: Hs-578T
[18] = test system: IGROV-1
[19] = test system: K562
[20] = test system: KM12
[21] = test system: LOX IMVI
[22] = test system: M14
[23] = test system: MCF7
[24] = test system: MDA-MB-231
[25] = test system: MDA-MB-435
[26] = test system: MDA-N
[27] = test system: MOLT-4
[28] = test system: Malme-3M
[29] = test system: NCI-H226
[30] = test system: NCI-H23
[31] = test system: NCI-H460
[32] = test system: NCI-H522
[33] = test system: NCI/ADR-RES
[34] = test system: OVCAR-3
[35] = test system: OVCAR-4
[36] = test system: OVCAR-5
[37] = test system: OVCAR-8
[38] = test system: PC-3
[39] = test system: RPMI-8226
[40] = test system: SF-268
[41] = test system: SF-295
[42] = test system: SF-539
[43] = test system: SK-MEL-28
[44] = test system: SK-MEL-2
[45] = test system: SK-MEL-5
[46] = test system: SK-OV-3
[47] = test system: SN12C
[48] = test system: SNB-19
[49] = test system: SW-620
[50] = test system: T47D
[51] = test system: TK-10
[52] = test system: U-251
[53] = test system: UACC-257
[54] = test system: UACC-62
[55] = test system: UO-31

CC(C)=CCC/C(C)=C/CO [GERANIOL]
GI50 [1]: > 100 µM (inactive) | GI50 [2]: > 100 µM (inactive) | GI50 [3]: > 100 µM (inactive) | GI50 [4]: > 100 µM (inactive) | GI50 [5]: > 100 µM (inactive) | GI50 [6]: > 100 µM (inactive) | GI50 [7]: > 100 µM (inactive) | GI50 [8]: > 100 µM (inactive) | GI50 [9]: > 100 µM (inactive) | GI50 [10]: > 100 µM (inactive) | GI50 [11]: > 100 µM (inactive) | GI50 [12]: > 100 µM (inactive) | GI50 [13]: > 100 µM | GI50 [14]: > 100 µM (inactive) | GI50 [15]: > 100 µM (inactive) | GI50 [16]: > 100 µM (inactive) | GI50 [17]: > 100 µM (inactive) | GI50 [18]: > 100 µM (inactive) | GI50 [19]: > 100 µM (inactive) | GI50 [20]: > 100 µM (inactive) | GI50 [21]: > 100 µM (inactive) | GI50 [22]: > 100 µM (inactive) | GI50 [23]: > 100 µM (inactive) | GI50 [24]: > 100 µM (inactive) | GI50 [25]: > 100 µM (inactive) | GI50 [26]: > 100 µM (inactive) | GI50 [27]: > 100 µM (inactive) | GI50 [28]: > 100 µM (inactive) | GI50 [29]: > 100 µM (inactive) | GI50 [30]: > 100 µM (inactive) | GI50 [31]: > 100 µM (inactive) | GI50 [32]: > 100 µM (inactive) | GI50 [33]: > 100 µM (inactive) | GI50 [34]: > 100 µM (inactive) | GI50 [35]: > 100 µM (inactive) | GI50 [36]: > 100 µM (inactive) | GI50 [37]: > 100 µM (inactive) | GI50 [38]: > 100 µM (inactive) | GI50 [39]: > 100 µM (inactive) | GI50 [40]: > 100 µM (inactive) | GI50 [41]: > 100 µM (inactive) | GI50 [42]: > 100 µM (inactive) | GI50 [43]: > 100 µM (inactive) | GI50 [44]: > 100 µM (inactive) | GI50 [45]: > 100 µM (inactive) | GI50 [46]: > 100 µM (inactive) | GI50 [47]: > 100 µM (inactive) | GI50 [48]: > 100 µM (inactive) | GI50 [49]: > 100 µM (inactive) | GI50 [50]: > 100 µM (inactive) | GI50 [51]: > 100 µM (inactive) | GI50 [52]: > 100 µM (inactive) | GI50 [53]: > 100 µM (inactive) | GI50 [54]: > 100 µM (inactive) | GI50 [55]: > 100 µM (inactive)
